Two compounds from ChEMBL document CHEMBL4387706, “Discovery of Novel Spiroindoline Derivatives as Selective Tankyrase Inhibitors” (J Med Chem, 2019) can be followed below.

Data set [1] concerns RKO. As to the kind of experiment: Antiproliferative activity against human RKO cells assessed reduction in cell viability at 0.3 uM measured after 5 days by MTT assay. It is filed as functional, cell-based. A general note: Tetrazolium assays rely on reduction of a dye to a coloured formazan, in cell work by metabolically active cells.
A short description of data set [2]: in vitro. The note with it: mouse, liver microsomes. In general terms: Liver microsomes are a subcellular fraction often used to study metabolism.
Description: Stability in mouse liver microsomes assessed as parent compound remaining at 1 uM measured after 30 mins in presence of NADPH by LC-MS/MS analysis
Data set [3] in a line: Cmax in ICR mouse at 50 mg/kg, ip. It is filed as ADME, organism-based. The arrangement: dose 50 mg/kg, route intraperitoneal. The following applies: in vivo.
Data set [4] concerns the target Poly [ADP-ribose] polymerase 1 (Homo sapiens, UniProt P09874).
Description: Inhibition of recombinant human PARP1 expressed in Escherichia coli assessed as reduction in auto-PARylation using histone as substrate measured after 45 mins in presence of biotinylated-NAD+ by ELISA
For data set [5], the target named is T1, Poly [ADP-ribose] polymerase tankyrase-2 (Homo sapiens, UniProt Q9H2K2).
T1 sequence (Q9H2K2 whole entry): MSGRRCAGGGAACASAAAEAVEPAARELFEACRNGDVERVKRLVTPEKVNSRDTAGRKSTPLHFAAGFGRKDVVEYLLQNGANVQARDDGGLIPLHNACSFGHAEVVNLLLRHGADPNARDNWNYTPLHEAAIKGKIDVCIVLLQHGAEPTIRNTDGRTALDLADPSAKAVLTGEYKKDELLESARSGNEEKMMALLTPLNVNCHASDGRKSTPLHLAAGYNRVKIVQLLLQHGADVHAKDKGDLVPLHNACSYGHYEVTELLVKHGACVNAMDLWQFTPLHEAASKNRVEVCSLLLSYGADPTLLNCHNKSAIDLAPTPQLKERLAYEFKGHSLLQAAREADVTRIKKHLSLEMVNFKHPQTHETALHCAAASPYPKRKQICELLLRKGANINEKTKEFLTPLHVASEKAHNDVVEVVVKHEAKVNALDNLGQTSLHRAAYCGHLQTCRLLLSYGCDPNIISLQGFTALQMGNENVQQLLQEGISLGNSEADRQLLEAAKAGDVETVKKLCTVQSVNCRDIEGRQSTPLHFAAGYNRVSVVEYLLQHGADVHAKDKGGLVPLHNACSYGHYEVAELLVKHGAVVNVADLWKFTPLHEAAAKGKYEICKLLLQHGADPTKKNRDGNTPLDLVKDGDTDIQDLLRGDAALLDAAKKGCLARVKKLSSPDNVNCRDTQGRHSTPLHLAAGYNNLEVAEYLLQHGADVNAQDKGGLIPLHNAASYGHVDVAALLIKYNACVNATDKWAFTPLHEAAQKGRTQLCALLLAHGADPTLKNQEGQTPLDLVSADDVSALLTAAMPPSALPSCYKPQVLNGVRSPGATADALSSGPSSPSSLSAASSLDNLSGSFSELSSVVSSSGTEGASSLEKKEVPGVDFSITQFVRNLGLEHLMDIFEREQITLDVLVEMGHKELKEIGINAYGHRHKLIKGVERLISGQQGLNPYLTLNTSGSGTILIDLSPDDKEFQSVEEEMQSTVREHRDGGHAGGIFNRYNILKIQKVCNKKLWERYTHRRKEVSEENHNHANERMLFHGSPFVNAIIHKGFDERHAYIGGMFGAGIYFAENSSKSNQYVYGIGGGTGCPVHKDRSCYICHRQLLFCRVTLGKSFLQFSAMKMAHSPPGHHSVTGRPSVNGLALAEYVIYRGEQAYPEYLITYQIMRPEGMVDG
Description: Inhibition of recombinant human N-terminal TEV cleavage site-fused/FLAG-poly his-tagged TNKS2 SAM-PARP domain (613 to 1166 residues) expressed in Escherichia coli assessed as reduction in auto-PARylation preincubated for 10 mins followed by biotinylated-NAD+ addition and measured after 45 mins by ELISA

The target in data set [6] is Tankyrase 1/2 (Homo sapiens) (UniProt Q9H2K2+O95271). The experiment in a line: Inhibition of TNKS/TNKS2 in human COLO320DM cells assessed as upregulation of AXIN2 expression at 0.1 uM measured after 16 hrs by Western blot analysis relative to G007-LK. It is filed as cell-based. Background: A western blot detects proteins with antibodies after separation by electrophoresis.

Data set [7] deals with RKO. The experiment in a line: Antiproliferative activity against human RKO cells assessed inhibition of cell growth measured after 5 days by MTT assay. It is filed as functional. The following applies: 120 h.
In data set [8] the test system is COLO 320DM. The experiment in a line: Antiproliferative activity against human COLO320DM cells assessed inhibition of cell growth measured after 5 days by MTT assay. The note with it: 120 h. It is filed as functional.
A short description of data set [9]: Protein binding in mouse serum assessed as unbound fraction at 1 uM measured after 24 hrs by LC-MS/MS analysis. It is filed as ADME, cell-free.
The nature of data set [10]: AUC (infinity) in ICR mouse at 50 mg/kg, ip. It is filed as ADME, organism-based. The arrangement: dose 50 mg/kg, route intraperitoneal, time infinity. The note with it: in vivo.
Data set [11] addresses T2, Poly [ADP-ribose] polymerase tankyrase-1 (Homo sapiens, UniProt O95271).
T2 sequence (O95271 whole entry): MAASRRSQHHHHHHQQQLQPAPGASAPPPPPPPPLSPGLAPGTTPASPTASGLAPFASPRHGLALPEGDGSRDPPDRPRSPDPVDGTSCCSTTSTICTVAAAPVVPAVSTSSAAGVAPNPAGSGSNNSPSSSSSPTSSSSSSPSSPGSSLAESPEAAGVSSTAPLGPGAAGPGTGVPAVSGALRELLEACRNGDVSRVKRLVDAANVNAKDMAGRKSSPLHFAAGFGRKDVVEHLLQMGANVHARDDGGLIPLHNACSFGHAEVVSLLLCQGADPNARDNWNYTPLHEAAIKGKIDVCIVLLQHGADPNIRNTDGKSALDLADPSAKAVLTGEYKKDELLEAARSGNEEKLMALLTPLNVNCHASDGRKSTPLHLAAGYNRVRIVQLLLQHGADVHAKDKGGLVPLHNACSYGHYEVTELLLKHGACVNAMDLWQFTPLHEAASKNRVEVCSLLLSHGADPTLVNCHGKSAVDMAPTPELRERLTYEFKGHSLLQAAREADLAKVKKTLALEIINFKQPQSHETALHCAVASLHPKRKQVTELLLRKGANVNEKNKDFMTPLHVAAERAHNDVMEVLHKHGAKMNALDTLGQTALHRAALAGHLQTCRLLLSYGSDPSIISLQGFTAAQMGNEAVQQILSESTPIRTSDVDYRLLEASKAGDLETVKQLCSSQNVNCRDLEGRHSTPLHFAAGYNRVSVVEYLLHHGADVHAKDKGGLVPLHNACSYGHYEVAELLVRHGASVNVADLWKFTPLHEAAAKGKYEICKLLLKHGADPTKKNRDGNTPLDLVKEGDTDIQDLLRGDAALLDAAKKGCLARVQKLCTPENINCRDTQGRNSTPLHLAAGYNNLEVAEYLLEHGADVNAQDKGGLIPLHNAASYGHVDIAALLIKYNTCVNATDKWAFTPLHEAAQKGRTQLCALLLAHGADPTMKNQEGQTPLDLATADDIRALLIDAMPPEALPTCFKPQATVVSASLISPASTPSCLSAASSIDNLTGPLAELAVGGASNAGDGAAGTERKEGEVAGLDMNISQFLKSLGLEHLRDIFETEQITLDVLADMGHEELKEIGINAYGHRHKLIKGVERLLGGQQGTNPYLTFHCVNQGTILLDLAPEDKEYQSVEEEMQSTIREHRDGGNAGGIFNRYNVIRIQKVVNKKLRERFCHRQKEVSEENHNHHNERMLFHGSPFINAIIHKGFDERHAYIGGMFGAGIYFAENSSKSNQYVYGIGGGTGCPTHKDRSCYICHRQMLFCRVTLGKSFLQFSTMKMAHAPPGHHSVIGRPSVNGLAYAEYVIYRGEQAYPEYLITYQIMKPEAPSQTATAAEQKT
Description: Inhibition of recombinant human N-terminal TEV cleavage site-fused/FLAG-poly his-tagged TNKS SAM-PARP domain (1024 to 1327 residues) expressed in Escherichia coli assessed as reduction in auto-PARylation preincubated for 10 mins followed by biotinylated-NAD+ addition and measured after 45 mins by ELISA

Data set [12] in a line: Half life in ICR mouse at 50 mg/kg, ip. The following applies: in vivo. It is filed as ADME, organism-based.
For data set [13], the system named is COLO 320DM. As to the kind of experiment: cells. The note with it: Homo sapiens, 96 h.
Description: Antiproliferative activity against human COLO320DM cells assessed as inhibition of cell growth measured after 4 days by CellTiter-Glo assay
Data set [14] in a line: Permeability of the compound by PAMPA. It is filed as ADME. The following applies: read-out: permeability.
Data set [15] can be described thus: physchem. The note with it: phosphate buffer, pH 7.4.
Data set [16] addresses T3, Tankyrase 1/2 (Homo sapiens, UniProt Q9H2K2+O95271).
T3 sequence (Q9H2K2 whole entry): T1 sequence (Q9H2K2 whole entry)
T3 sequence (O95271 whole entry): T2 sequence (O95271 whole entry)
Description: Inhibition of TNKS/TNKS2 (unknown origin) expressed in human DLD1 cells assessed as reduction in Wnt-signaling measured after 24 hrs by TCF-luciferase reporter gene assay

The nature of data set [17]: Protein binding in human serum assessed as unbound fraction at 1 uM measured after 24 hrs by LC-MS/MS analysis. It is filed as ADME, cell-free.
Data set [18] in a line: in vitro. The following applies: human, liver microsomes.
Description: Stability in human liver microsomes assessed as parent compound remaining at 1 uM measured after 30 mins in presence of NADPH by LC-MS/MS analysis

Each structure is given as a SMILES string. Values after ≈ are worked out from the molar mass of the structure shown. Active and inactive are the calls of the source. The rule behind the calls is not given here.

Poly [ADP-ribose] polymerase 1, sequence (P09874 whole entry): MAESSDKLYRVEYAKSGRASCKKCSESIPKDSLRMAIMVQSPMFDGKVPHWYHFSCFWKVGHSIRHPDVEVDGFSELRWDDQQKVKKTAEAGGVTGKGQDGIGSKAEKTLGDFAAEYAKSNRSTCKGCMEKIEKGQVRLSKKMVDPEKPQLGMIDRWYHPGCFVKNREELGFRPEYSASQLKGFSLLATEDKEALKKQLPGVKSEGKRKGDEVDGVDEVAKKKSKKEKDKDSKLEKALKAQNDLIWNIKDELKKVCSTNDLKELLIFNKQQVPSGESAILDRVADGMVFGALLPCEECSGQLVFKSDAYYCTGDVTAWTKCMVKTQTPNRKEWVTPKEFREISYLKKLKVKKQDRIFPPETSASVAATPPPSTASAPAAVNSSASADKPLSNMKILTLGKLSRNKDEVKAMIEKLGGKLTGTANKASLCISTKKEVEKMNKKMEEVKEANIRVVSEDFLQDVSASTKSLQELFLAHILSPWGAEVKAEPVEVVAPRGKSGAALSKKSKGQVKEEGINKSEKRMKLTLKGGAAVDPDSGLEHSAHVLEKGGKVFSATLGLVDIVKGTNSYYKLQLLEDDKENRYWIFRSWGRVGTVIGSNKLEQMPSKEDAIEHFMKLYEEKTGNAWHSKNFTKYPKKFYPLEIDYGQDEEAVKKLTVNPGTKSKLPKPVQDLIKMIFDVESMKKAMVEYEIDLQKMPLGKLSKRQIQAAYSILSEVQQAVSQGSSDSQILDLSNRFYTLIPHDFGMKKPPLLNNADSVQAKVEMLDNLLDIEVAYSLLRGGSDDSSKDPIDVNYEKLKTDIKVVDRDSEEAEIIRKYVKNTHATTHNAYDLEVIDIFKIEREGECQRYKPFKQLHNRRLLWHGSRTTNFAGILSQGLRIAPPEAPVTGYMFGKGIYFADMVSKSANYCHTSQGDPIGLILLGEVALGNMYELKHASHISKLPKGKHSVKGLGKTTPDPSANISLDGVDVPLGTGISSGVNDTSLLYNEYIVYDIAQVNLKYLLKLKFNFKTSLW

Usually share remaining stands for the share of the starting amount still present when the sample was taken. For orientation: Cmax means the highest concentration seen after dosing. As a reminder, the IC50 is the midpoint of a concentration-inhibition curve. Usually GI50 stands for the concentration at which growth is held to half of that of the control. As a reminder, the fraction unbound is the share of the substance not bound to proteins or other matrix. A word on the AUC(0-inf): it is total exposure, with the tail of the curve extrapolated. As a reminder, the half-life is how long it takes for the measured level to halve. Lower therefore signals rapid decline. By solubility is commonly meant how much of the substance goes into solution per volume. Read a high solubility as much dissolved substance. Regarding `O=C1N(CCO)c2cc(F)cc(F)c2C12CCN(c1nc3c(c(=O)[nH]1)CCCC3)CC2`, the outcome in [1] was Active. For the same compound, the share remaining at 0.5 h, 1 µM was 39.1% in data set [2] and 39.5% in [18]. Besides, the Cmax in data set [3] worked out at 48.1 µM. The IC50 is over 20000 nM in data set [4], 15.1 nM in [5], 10 nM in data set [11] and 79.4 nM in data set [16]. In data set [6], the fold change (FC) is 3.93. Further, the GI50 in [7] was over 10000 nM; in data set [8], 470 nM; in data set [13] it was 2400 nM. The values for the fraction unbound at 24 h, 1 µM in data set [9] and in data set [17] were 0.077 and 0.017, respectively. The same compound displayed an AUC(0-inf) in data set [10] of 106 µM·h. Also, the half-life in data set [12] was 3.6 h. Moreover, in data set [14], the Papp stood at 7.9 ×10⁻⁶ cm/s. In addition, in data set [15], the solubility at 1 h, 200 µM amounted to 76.9 µg/mL (≈ 179 µM).
Take `O=C1N(CCO)c2cccc(Cl)c2C12CCN(c1nc3c(c(=O)[nH]1)CCCC3)CC2`: the result in data set [1] was Active. The values for the share remaining at 0.5 h, 1 µM in [2] and in data set [18] were 19.1% and 28.9%, respectively. Besides, in data set [3], the Cmax amounted to 5.35 µM. Also, the IC50 in data set [4] is over 20000 nM; in data set [5], 6.8 nM; in data set [11], 4.4 nM; in data set [16], 13.9 nM. Also, the fold change (FC) in data set [6] is 5.75. Also, the GI50 is over 10000 nM in data set [7], 250 nM in data set [8] and 1000 nM in data set [13]. Also, the fraction unbound at 24 h, 1 µM in data set [9] was determined as 0.042; in data set [17] it was 0.018. In data set [10], this compound returned an AUC(0-inf) of 157 µM·h. In [12], this compound had a half-life of 4.1 h. In addition, in data set [14], the Papp came out at 1.1 ×10⁻⁶ cm/s. In [15], the solubility at 1 h, 200 µM was determined as 84.5 µg/mL (≈ 197 µM).
